From ChEMBL document CHEMBL5550112, “Development of a fluorescent ligand that can illuminate nuclear G-quadruplexes and modulate oncogene expression” (Bioorg Med Chem, 2024)
Active and inactive are the calls of the source. No cut-off for these calls is given here.

Legend:
[1] = test system: MDA-MB-231; experiment: Induction of cell cycle arrest in human MDA-MB-231 cells assessed as accumulation of cells at sub-G1 phase at 20 uM incubated for 24 hrs by flow cytometry (reference value: 0.6 %); format: functional
[2] = target: DNA; experiment: Binding affinity to Duplex DNA (unknown origin) assessed as dissociation constant by fluorescence spectrophotometric analysis; format: nucleic-acid assay
[3] = test system: Calf thymus DNA; experiment: Binding affinity to calf thymus DNA (unknown origin) assessed as increase in fluorescence intensity at 5 uM by fluorescence spectrophotometric analysis; conditions: Bos taurus
[4] = test system: Quadruplex DNA; experiment: Binding affinity to Parallel CHL1 G-quadruplex DNA (unknown origin) assessed as increase in fluorescence intensity at 5 uM by fluorescence spectrophotometric analysis; format: nucleic-acid assay
[5] = test system: Quadruplex DNA; experiment: Binding affinity to G-quadruplex DNA in human MDA-MB-231 cells assessed as increase in fluorescence at 2 uM incubated for 30 mins by RNase A digestion based confocal microscopic analysis; format: cell-based
[6] = test system: HEK-293T; experiment: Effect on KRAS gene expression in human HEK293T cells co-transfected with KRAS promoter luciferase reporter assessed as decrease in KRAS expression by measuring reduction in firefly luciferase expression at 10 to 20 uM incubated for 24 hrs by firefly luciferase based microplate analysis; format: functional, cell-based; conditions: dose 10-20 µM
[7] = test system: DNA; experiment: Binding affinity to Duplex DNA (unknown origin) assessed as increase in fluorescence by measuring red shift at 5 uM by fluorescence titration spectra analysis; format: nucleic-acid assay
[8] = target: Quadruplex DNA; experiment: Binding affinity to 3'-Cy5-labelled c-MYC G-quadruplex DNA (unknown origin) assessed as dissociation constant by fluorescence quenching analysis; format: nucleic-acid assay
[9] = test system: MDA-MB-231; experiment: Antiproliferative activity against human MDA-MB-231 cells assessed as inhibition of cell growth incubated for 24 hrs by CCK-8 assay; format: functional, cell-based; conditions: MDA-MB-231, 24 h
[10] = test system: Quadruplex DNA; experiment: Displacement of […] from G-quadruplex DNA in human MDA-MB-231 cells assessed as increase in fluorescence at 2 uM preincubated for 30 mins followed by PDS addition and measured after 20 mins by Hoechst 33342 staining based confocal microscopic analysis; format: cell-based; conditions: time 50.0 min
[11] = test system: Quadruplex DNA; experiment: Binding affinity to Antiparallel TBA G-quadruplex DNA (unknown origin) assessed as increase in fluorescence intensity at 5 uM by fluorescence spectrophotometric analysis; format: nucleic-acid assay
[12] = test system: MDA-MB-231; experiment: Antiproliferative activity against human MDA-MB-231 cells cultured as 3D tumor spheroids assessed as inhibition of tumor volume incubated for 7 days; format: functional, cell-based; conditions: time 7.0 day
[13] = test system: Quadruplex DNA; experiment: Binding affinity to Parallel c-KIT1 G-quadruplex DNA (unknown origin) assessed as increase in fluorescence intensity at 5 uM by fluorescence spectrophotometric analysis; format: nucleic-acid assay
[14] = test system: MDA-MB-231; experiment: Induction of cell cycle arrest in human MDA-MB-231 cells assessed as accumulation of cells at G0-G1 phase at 10 uM incubated for 24 hrs by flow cytometry (reference value: 69.6 %); format: functional
[15] = test system: Quadruplex DNA; experiment: Stabilization of FAM/TAMRA-labelled KRAS G-quadruplex DNA (unknown origin) assessed as change in melting temperature in presence of duplex DNA by FRET assay; format: nucleic-acid assay
[16] = test system: Quadruplex DNA; experiment: Binding affinity to c-MYC G-quadruplex DNA (unknown origin) assessed as decrease in absorption band by measuring red shift at 5 uM by absorption spectra analysis; format: nucleic-acid assay
[17] = test system: DNA; experiment: Binding affinity to Duplex DNA (unknown origin) assessed as hypochromic red shift at 5 uM by absorption spectra analysis; format: nucleic-acid assay
[18] = test system: MDA-MB-231; experiment: Induction of cell death in human MDA-MB-231 cells cultured as 3D tumor spheroids assessed as increase in red fluorescence intensity at 20 uM incubated for 7 days by propidium iodide staining based imaging analysis; format: functional; conditions: time 7.0 day
[19] = test system: MDA-MB-231; experiment: Induction of cell cycle arrest in human MDA-MB-231 cells assessed as accumulation of cells at G2-M phase at 15 uM incubated for 24 hrs by flow cytometry (reference value: 16.8 %); format: functional
[20] = test system: Quadruplex DNA; experiment: Binding affinity to Parallel VAV1 G-quadruplex DNA (unknown origin) assessed as increase in fluorescence intensity at 5 uM by fluorescence spectrophotometric analysis; format: nucleic-acid assay
[21] = test system: Quadruplex DNA; experiment: Binding affinity to Parallel c-KIT2 G-quadruplex DNA (unknown origin) assessed as increase in fluorescence intensity at 5 uM by fluorescence spectrophotometric analysis; format: nucleic-acid assay
[22] = test system: Quadruplex DNA; experiment: Binding affinity to Antiparallel Bm G-quadruplex DNA (unknown origin) assessed as increase in fluorescence intensity at 5 uM by fluorescence spectrophotometric analysis; format: nucleic-acid assay
[23] = test system: MDA-MB-231; experiment: Induction of cell cycle arrest in human MDA-MB-231 cells assessed as accumulation of cells at G0-G1 phase at 20 uM incubated for 24 hrs by flow cytometry (reference value: 69.6 %); format: functional
[24] = test system: Quadruplex DNA; experiment: Binding affinity to Parallel PS2M G-quadruplex DNA (unknown origin) assessed as increase in fluorescence intensity at 5 uM by fluorescence spectrophotometric analysis; format: nucleic-acid assay
[25] = test system: Quadruplex DNA; experiment: Binding affinity to G-quadruplex DNA in human MDA-MB-231 cells assessed as increase in fluorescence at 2 uM incubated for 30 mins in presence of dimethyl sulfate by Hoechst 33342 staining based confocal microscopic analysis; format: cell-based
[26] = test system: Quadruplex DNA; experiment: Binding affinity to KRAS G-quadruplex DNA (unknown origin) assessed as fluorescence quantum yield by fluorescence spectrophotometric analysis; format: nucleic-acid assay
[27] = test system: MDA-MB-231; experiment: Induction of cell cycle arrest in human MDA-MB-231 cells assessed as accumulation of cells at G0-G1 phase at 15 uM incubated for 24 hrs by flow cytometry (reference value: 69.6 %); format: functional
[28] = test system: Quadruplex DNA; experiment: Binding affinity to Parallel BCL2 G-quadruplex DNA (unknown origin) assessed as increase in fluorescence intensity at 5 uM by fluorescence spectrophotometric analysis; format: nucleic-acid assay
[29] = test system: Quadruplex DNA; experiment: Binding affinity to KRAS G-quadruplex DNA (unknown origin) assessed as decrease in absorption band by measuring red shift at 5 uM by absorption spectra analysis; format: nucleic-acid assay
[30] = test system: MDA-MB-231; experiment: Induction of cell death in human MDA-MB-231 cells cultured as 3D tumor spheroids assessed as increase in red fluorescence intensity at 40 uM incubated for 7 days by propidium iodide staining based imaging analysis; format: functional; conditions: time 7.0 day
[31] = test system: MDA-MB-231; experiment: Induction of cell cycle arrest in human MDA-MB-231 cells assessed as accumulation of cells at sub-G1 phase at 15 uM incubated for 24 hrs by flow cytometry (reference value: 0.6 %); format: functional
[32] = target: Quadruplex DNA; experiment: Binding affinity to KRAS G-quadruplex DNA (unknown origin) assessed as dissociation constant by fluorescence spectrophotometric analysis; format: nucleic-acid assay
[33] = test system: Quadruplex DNA; experiment: Binding affinity to KRAS G-quadruplex DNA (unknown origin) assessed as increase in fluorescence by measuring red shift at 5 uM by fluorescence titration spectra analysis; format: nucleic-acid assay

Kd [2]: 5.3 µM
Activity [4]: Active
Activity [7]: Active
Kd [8]: 1 µM
IC50 [9]: 13.3 µM
Activity [11]: Active
Activity [13]: Active
ΔTm [15]: 14 °C
Activity [16]: Active
Activity [17]: Active
Activity [20]: Active
Activity [21]: Active
Activity [22]: Active
Activity [24]: Active
Activity [26]: 0.19
Activity [28]: Active
Activity [29]: Active
Kd [32]: 0.5 µM
Activity [33]: Active
Structure (SMILES): CCn1c2ccccc2c2cc(/C=C/c3sc4ccccc4[n+]3C)ccc21.[I-]
Activity [1]: 56.7%
Activity [3]: Active
Activity [5]: Active
Activity [6]: Active
Activity [10]: inactive
Activity [12]: Dose-Dependent Effect
Activity [14]: 66.5%
Activity [18]: Active
Activity [19]: 10.3%
Activity [23]: 28.3%
Activity [25]: inactive
Activity [27]: 47.2%
Activity [30]: Active
Activity [31]: 32.3%
